This passage reports IC50 and inhibition results from patent US20250368649A1, “TETRAHYDROPYRIDOPYRIMIDINE PAN-KRAS INHIBITORS” (Mirati Therapeutics, Inc., priority 2022, published 2025).

The test system of one assay is H727 cells. In words: Inhibition of KRas-mediated phosphorylation of ERK (Cisbio HTRF pERK), H727 cells. The class given is cell-based. The settings on record: Homo sapiens; for IC50: NCI-H727, 3 h, 3 hr compound incubation, Cisbio pERK HTRF; for inhibition at 0.1 µM: NCI-H727, single point at 100 nM, 3 hrs compound incubation.
The target in a further assay is KRas G12S (Homo sapiens, UniProt P01116, G12S). The class given is binding. The settings on record: single point, 10 nM compound, read-out: Binding to KRas (% inhibition at 10 nM) G12S.
In a further assay the test system is H358 cells. Briefly: Inhibition of KRas-mediated phosphorylation of ERK (Cisbio HTRF pERK), H358 cells. The class given is cell-based. The settings on record: Homo sapiens; for IC50: NCI-H358, 3 h, 3 hr compound incubation, Cisbio pERK HTRF; for inhibition at 0.1 µM: NCI-H358, single point at 100 nM, 3 hrs compound incubation.
A further assay deals with KRas G12A (Homo sapiens, UniProt P01116, G12A). The class given is binding. The settings on record: single point, 10 nM compound, read-out: Binding to KRas (% inhibition at 10 nM) G12A.
The test system of the next assay is ASPC1 cells. Briefly: Inhibition of KRas-mediated phosphorylation of ERK (Cisbio HTRF pERK), ASPC1 cells. The class given is cell-based. The settings on record: Homo sapiens, AsPC-1 cells; for IC50: ASPC1, 3 h, 3 hr compound incubation, Cisbio pERK HTRF; for inhibition at 0.1 µM: ASPC1, single point at 100 nM, 3 hrs compound incubation.
Another assay deals with A549 cells. In words: Inhibition of KRas-mediated phosphorylation of ERK (Cisbio HTRF pERK), A549 cells. The settings on record: Homo sapiens; for IC50: A549, 3 h, 3 hr compound incubation, Cisbio pERK HTRF; for inhibition at 0.1 µM: single point at 100 nM, 3 hrs compound incubation. The class given is cell-based.
Another assay deals with H460 cells. Briefly: Inhibition of KRas-mediated phosphorylation of ERK (Cisbio HTRF pERK), H460 cells. The settings on record: Homo sapiens; for IC50: NCI-H460, 3 h, 3 hr compound incubation, Cisbio pERK HTRF; for inhibition at 0.1 µM: NCI-H460, single point at 100 nM, 3 hrs compound incubation. The class given is cell-based.
In a further assay the test system is PSN1 cells. Briefly: Inhibition of KRas-mediated phosphorylation of ERK (Cisbio HTRF pERK), PSN1 cells. The class given is cell-based. The settings on record: Homo sapiens, PSN1, 3 h, 3 hour compound incubation, Cisbio pERK HTRF. An outline of the steps:
(§1)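 Cells were seeded on day 1 at 6,000 per well in RPMI containing 10% FBS before compound treatment and phospho-ERK detection.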

The next assay deals with KRas G12R (Homo sapiens, UniProt P01116, G12R). In words: biochemical. The settings on record: Binding to KRas (IC50 nM) G12R, TR-FRET displacement, KRas G12R.
The subject of a further assay is HCT116 cells. Briefly: Inhibition of KRas-mediated phosphorylation of ERK (Cisbio HTRF pERK), HCT116 cells. The class given is cell-based. The settings on record: Homo sapiens; for IC50: HCT-116, 3 h, 3 hr compound incubation, Cisbio pERK HTRF; for inhibition at 0.1 µM: HCT-116, single point at 100 nM, 3 hrs compound incubation.
The target in the next assay is KRas G12D (Homo sapiens, UniProt P01116, G12D). In words: biochemical. The settings on record: Binding to KRas (IC50 nM) G12D, TR-FRET displacement, KRas G12D.
The target in another assay is KRas WT (Homo sapiens, UniProt P01116). In words: KRas binding assay (TR-FRET displacement), KRas WT. The settings on record: single point, 10 nM compound.
In the next assay the target is KRas G12V (Homo sapiens, UniProt P01116, G12V). In words: biochemical. The settings on record: Binding to KRas (IC50 nM) G12V, TR-FRET displacement, KRas G12V.
The next assay has as its target KRas G13D (Homo sapiens, UniProt P01116, G13D). The class given is binding. The settings on record: single point, 10 nM compound, read-out: Binding to KRas (% inhibition at 10 nM) G13D.
Another assay deals with MKN1 cells. In words: Inhibition of KRas-mediated phosphorylation of ERK (Cisbio HTRF pERK), MKN1 cells. The class given is cell-based. The settings on record: Homo sapiens, MKN-1, 3 hour compound incubation, Cisbio pERK HTRF. An outline of the steps: as §1
For the next assay, the target named is KRas Q61H (Homo sapiens, UniProt P01116, Q61H). Briefly: KRas binding assay (TR-FRET displacement), KRas Q61H. The settings on record: single point, 10 nM compound.
A further assay concerns the target KRas G12C (Homo sapiens, UniProt P01116, G12C). The class given is binding. The settings on record: single point, 10 nM compound, read-out: Binding to KRas (% inhibition at 10 nM) G12C.

Sequence of KRas G12A (P01116 1-169 isoform P01116-2 G12A): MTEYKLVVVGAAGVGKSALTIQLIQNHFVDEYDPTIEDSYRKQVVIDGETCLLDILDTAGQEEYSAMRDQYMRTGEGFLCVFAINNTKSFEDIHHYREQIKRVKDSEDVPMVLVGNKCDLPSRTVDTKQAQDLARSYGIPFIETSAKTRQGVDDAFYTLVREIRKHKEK
Sequence of KRas WT (P01116 1-169 isoform P01116-2): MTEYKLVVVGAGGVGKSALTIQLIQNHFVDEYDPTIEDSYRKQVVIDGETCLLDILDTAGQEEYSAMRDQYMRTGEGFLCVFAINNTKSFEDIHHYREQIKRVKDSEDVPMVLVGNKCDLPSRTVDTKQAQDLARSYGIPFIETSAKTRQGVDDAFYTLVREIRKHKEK
Sequence of KRas G12R (P01116 1-169 isoform P01116-2 G12R): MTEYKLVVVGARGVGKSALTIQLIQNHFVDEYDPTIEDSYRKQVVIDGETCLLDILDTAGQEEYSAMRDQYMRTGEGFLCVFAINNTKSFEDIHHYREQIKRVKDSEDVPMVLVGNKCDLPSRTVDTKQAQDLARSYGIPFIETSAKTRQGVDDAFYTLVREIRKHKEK
Sequence of KRas G12S (P01116 1-169 isoform P01116-2 G12S): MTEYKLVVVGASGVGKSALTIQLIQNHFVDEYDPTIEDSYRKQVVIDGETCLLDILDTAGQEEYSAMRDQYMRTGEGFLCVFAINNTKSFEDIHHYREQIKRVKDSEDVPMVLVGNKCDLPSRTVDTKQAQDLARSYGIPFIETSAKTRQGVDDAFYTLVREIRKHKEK
Sequence of KRas G12D (P01116 1-169 isoform P01116-2 G12D): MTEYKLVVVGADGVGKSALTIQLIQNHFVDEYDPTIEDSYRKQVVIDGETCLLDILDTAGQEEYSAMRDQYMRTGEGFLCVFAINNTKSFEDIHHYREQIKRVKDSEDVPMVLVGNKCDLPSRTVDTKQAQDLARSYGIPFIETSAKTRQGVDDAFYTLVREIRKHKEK
Sequence of KRas G12C (P01116 1-169 isoform P01116-2 G12C): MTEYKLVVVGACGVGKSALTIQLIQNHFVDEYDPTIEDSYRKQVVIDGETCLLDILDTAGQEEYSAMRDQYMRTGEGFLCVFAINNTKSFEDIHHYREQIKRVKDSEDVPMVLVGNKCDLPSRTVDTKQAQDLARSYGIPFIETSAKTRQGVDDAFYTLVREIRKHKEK
Sequence of KRas Q61H (P01116 1-169 isoform P01116-2 Q61H): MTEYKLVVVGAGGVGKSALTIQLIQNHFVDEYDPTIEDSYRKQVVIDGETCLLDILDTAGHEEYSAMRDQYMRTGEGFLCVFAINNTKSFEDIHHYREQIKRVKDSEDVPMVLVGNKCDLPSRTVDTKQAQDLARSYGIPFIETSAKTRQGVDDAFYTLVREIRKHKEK
Sequence of KRas G13D (P01116 1-169 isoform P01116-2 G13D): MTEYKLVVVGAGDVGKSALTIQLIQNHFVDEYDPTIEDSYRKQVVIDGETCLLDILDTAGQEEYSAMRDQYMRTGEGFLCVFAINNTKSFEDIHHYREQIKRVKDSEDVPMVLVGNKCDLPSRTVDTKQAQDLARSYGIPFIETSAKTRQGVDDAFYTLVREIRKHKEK
Sequence of KRas G12V (P01116 1-169 isoform P01116-2 G12V): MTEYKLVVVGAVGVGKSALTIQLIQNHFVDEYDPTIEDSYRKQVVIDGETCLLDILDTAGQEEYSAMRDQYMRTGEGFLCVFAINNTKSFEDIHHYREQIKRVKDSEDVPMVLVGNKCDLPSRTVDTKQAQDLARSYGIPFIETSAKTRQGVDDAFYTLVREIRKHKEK

For the compound `CCc1c(F)ccc2cc(O)cc(N3CCc4c(nc(OC[C@@]56CCCN5C[C@H](F)C6)nc4N4CCCn5nc(C(=O)N6CC7CC6C7)cc5C4)C3)c12` [Example 342, 2-azabicyclo[2.1.1]hexan-2-yl(5-(7-(8-ethyl-7-fluoro-3-hydroxynaphthalen-1-yl)-2-(((2R,7aS)-2-fluorohexahydro-1H-pyrrolizin-7a-yl)methoxy)-5,6,7,8-tetrahydropyrido[3,4-d]pyrimidin-4-yl)-5,6,7,8-tetrahydro-4H-pyrazolo[1,5-a][1,4]diazepin-2-yl)methanone], the concentration for half-maximal inhibition (IC50) turned out to be 4 nM in the assay on H727 cells; 2 nM in the assay on H358 cells; 2 nM with ASPC1 cells; 8 nM in the assay on A549 cells; 23 nM with H460 cells; 2400 nM with PSN1 cells. Moreover, the IC50 on KRas G12R is below 2 nM; in the assay on HCT116 cells, 74 nM; at KRas G12D it was below 2 nM; on KRas G12V it was below 2 nM; in the assay on MKN1 cells, 3.9 nM. Also, the inhibition at 0.1 µM in the assay on H727 cells was 80%; in the assay on H358 cells, 100%; with ASPC1 cells, 96%; in the assay on A549 cells, 87%; with H460 cells, 86%; in the assay on HCT116 cells, 59%. For the same compound, the inhibition at 0.01 µM at KRas G12S worked out at 99%; on KRas G12A, 96%; at KRas WT it was 96%; at KRas G13D, 96%; on KRas Q61H, 96%; on KRas G12C, 99%.

In the case of `CCc1c(F)ccc2cc(O)cc(N3CCc4c(nc(OC[C@@]56CCCN5C[C@H](F)C6)nc4N4CCCn5nc(C(=O)N6CCC7CC76)cc5C4)C3)c12` (stereo partly drawn) [Example 344, 2-azabicyclo[3.1.0]hexan-2-yl(5-(7-(8-ethyl-7-fluoro-3-hydroxynaphthalen-1-yl)-2-(((2R,7aS)-2-fluorohexahydro-1H-pyrrolizin-7a-yl)methoxy)-5,6,7,8-tetrahydropyrido[3,4-d]pyrimidin-4-yl)-5,6,7,8-tetrahydro-4H-pyrazolo[1,5-a][1,4]diazepin-2-yl)methanone], the IC50 was determined as 3 nM with H727 cells; 2 nM in the assay with H358 cells; 2 nM in the assay with ASPC1 cells; 7 nM with A549 cells; 24 nM in the assay on H460 cells; 2030 nM in the assay on PSN1 cells. Moreover, the IC50 is below 2 nM on KRas G12R; 55 nM in the assay with HCT116 cells; below 2 nM on KRas G12D; below 2 nM at KRas G12V; 4.1 nM in the assay on MKN1 cells. For the same compound, the inhibition at 0.01 µM amounted to 99% on KRas G12S; 97% at KRas G12A; 97% at KRas WT; 96% at KRas G13D; 97% on KRas Q61H; 99% on KRas G12C. Further, the inhibition at 0.1 µM with H358 cells was determined as 97%; in the assay on A549 cells it was 85%; with H460 cells, 88%; in the assay with HCT116 cells, 57%.

With `CCc1c(F)ccc2cc(O)cc(N3CCc4c(nc(OC[C@@]56CCCN5C[C@H](F)C6)nc4N4CCCCn5nc(C(=O)N(C)C)cc5C4)C3)c12` [Example 349, 5-(7-(8-ethyl-7-fluoro-3-hydroxynaphthalen-1-yl)-2-(((2R,7aS)-2-fluorohexahydro-1H-pyrrolizin-7a-yl)methoxy)-5,6,7,8-tetrahydropyrido[3,4-d]pyrimidin-4-yl)-N,N-dimethyl-4,5,6,7,8,9-hexahydropyrazolo[1,5-a][1,4]diazocine-2-carboxamide], the IC50 with H727 cells was determined as 2 nM; in the assay with H358 cells, 2 nM; with ASPC1 cells, 8 nM; with A549 cells, 6 nM; in the assay on H460 cells it was 24 nM; in the assay with PSN1 cells it was 862 nM. Further, the IC50 on KRas G12R was below 2 nM; in the assay with HCT116 cells, 74 nM; on KRas G12D, below 2 nM; at KRas G12V it was below 2 nM; in the assay with MKN1 cells, 3.9 nM. The inhibition at 0.1 µM in the assay with H727 cells was determined as 86%; in the assay with H358 cells it was 101%; with ASPC1 cells it was 96%; in the assay with A549 cells, 75%; in the assay on H460 cells, 84%; with HCT116 cells it was 47%. Besides, the inhibition at 0.01 µM at KRas G12S is 99%; on KRas G12A, 96%; at KRas WT it was 96%; on KRas G13D it was 96%; at KRas Q61H, 98%; on KRas G12C it was 99%.

`CCc1c(F)ccc2cc(O)cc(N3CCc4c(nc(OC[C@@]56CCCN5C[C@H](F)C6)nc4N4CCCn5nc(N)c(Cl)c5C4)C3)c12` [Example 358, 4-(4-(2-amino-3-chloro-7,8-dihydro-4H-pyrazolo[1,5-a][1,4]diazepin-5(6H)-yl)-2-(((2R,7aS)-2-fluorohexahydro-1H-pyrrolizin-7a-yl)methoxy)-5,6-dihydropyrido[3,4-d]pyrimidin-7(8H)-yl)-5-ethyl-6-fluoronaphthalen-2-ol]: the concentration for half-maximal inhibition (IC50) in the assay with H727 cells came to 16 nM; in the assay with H358 cells, 4 nM; in the assay on ASPC1 cells it was 4 nM; with A549 cells, 10 nM; in the assay on H460 cells, 25 nM; with PSN1 cells it was 7400 nM. For the same compound, the IC50 at KRas G12R is below 2 nM; with HCT116 cells, 111 nM; at KRas G12D, below 2 nM; at KRas G12V, below 2 nM; in the assay with MKN1 cells it was 20.6 nM. The inhibition at 0.1 µM amounted to 72% with H727 cells, 95% in the assay with ASPC1 cells, 90% in the assay on H460 cells and 50% in the assay on HCT116 cells. In addition, the inhibition at 0.01 µM came out at 99% on KRas G12S; 93% at KRas G12A; 94% on KRas WT; 94% on KRas G13D; 95% at KRas Q61H; 99% at KRas G12C.

Regarding `CCc1c(F)ccc2cc(O)cc(N3CCc4c(nc(OC[C@@]56CCCN5C[C@H](F)C6)nc4N4CCCCn5nc(C(=O)N6CCOCC6)cc5C4)C3)c12` [Example 360, (5-(7-(8-ethyl-7-fluoro-3-hydroxynaphthalen-1-yl)-2-(((2R,7aS)-2-fluorotetrahydro-1H-pyrrolizin-7a(5H)-yl)methoxy)-5,6,7,8-tetrahydropyrido[3,4-d]pyrimidin-4-yl)-4,5,6,7,8,9-hexahydropyrazolo[1,5-a][1,4]diazocin-2-yl)(morpholino)methanone], the half-maximal inhibitory concentration (IC50) in the assay with H727 cells came to 4 nM; with H358 cells, 2 nM; in the assay with ASPC1 cells it was 9 nM; in the assay with A549 cells it was 9 nM; in the assay on H460 cells, 20 nM; in the assay on PSN1 cells, 1370 nM. Also, the IC50 on KRas G12R was below 2 nM; in the assay on HCT116 cells, 67 nM; at KRas G12D, below 2 nM; at KRas G12V, below 2 nM; with MKN1 cells, 12 nM. In addition, the inhibition at 0.01 µM on KRas G12S came to 99%; at KRas G12A it was 98%; on KRas WT it was 97%; on KRas G13D it was 97%; on KRas Q61H it was 97%; at KRas G12C, 100%. For the same compound, the inhibition at 0.1 µM with H460 cells was found to be 87%; in the assay on HCT116 cells it was 49%.
